# Values of other authors in patent publication US20190201417A1, “TOPICAL STEROID THERAPY FOR MUCOSAL AND DERMATOLOGICAL INFLAMMATORY DISEASE” (CINRX PHARMA, LLC, priority 2016, published 2019).
# Read-outs that look alike come from different tables or passages of the source.
# Key:
# Caco-2 cell monolayers = conditions: coadministration with chitosan glutamate
# [1] = rats, nasal application with chitosan glutamate
# [2] = sheep, nasal application with chitosan glutamate
compound,measurement,setting,value
9-desglycinamide-8-arginine vasopressin [DGAVP],transport of the peptide drug,Caco-2 cell monolayers,increased markedly
CCNC(=O)[C@@H]1CCCN1C(=O)[C@H](CCCNC(=N)N)NC(=O)[C@H](CC(C)C)NC(=O)[C@@H](COC(C)(C)C)NC(=O)[C@H](Cc1ccc(O)cc1)NC(=O)[C@H](CO)NC(=O)[C@H](Cc1c[nH]c2ccccc12)NC(=O)[C@H](Cc1cnc[nH]1)NC(=O)[C@@H]1CCC(=O)N1 [buserelin],absolute bioavailability of buserelin,intraduodenal application with chitosan hydrochloride in a gel formulation,5.1±1.5%
same,absolute bioavailability of buserelin,"intraduodenal application, baseline without chitosan hydrochloride",0.1±0.1%
insulin,blood glucose levels,[1],significant reduction
same,blood glucose levels,[2],significant reduction
